Residues, ends and D or L forms follow the SMILES beside them. *: point of attachment. Cbz = O=C(OCc1ccccc1)*; NHPh = c1ccc(N*)cc1; OtBu = CC(C)(C)O*
Legend:
C57BL/6 mice = assay: Thermal sensitivity (Hargreaves radiant heat) after intraplantar injection, mice without capsaicin; format: in vivo, mouse
Experimental: Experiments were performed on 6- to 12-week-old male C57BL/6 mice (The Jackson Laboratory, Bar Harbor, ME) housed in the AAALAC-accredited facility at the University of Texas Medical Branch. Mice were group-housed with up to 5 mice per cage on a 12-to-12-hour light–dark cycle and had access to water and food ad libitum. All protocols were approved by the Institutional Animal Care and Use Committee (IACUC) at the University of Texas Medical Branch and in accordance with the National Institutes of Health (NIH) guidelines.
PW164 and ZL192 were dissolved in DMSO and saline in a ratio of 1:10. 0.1% capsaicin (10% ethanol, 10% Tween-20 in saline; Sigma-Aldrich). All the compounds were injected at the center of the hind paw. The control group received a DMSO-saline mixture. […]
AAV2 viral particles packaged by the University of North Carolina Gene Therapy Core Facility (viral titer ranging […]
Before intrathecal injections in the lumbar region, mice were maintained in an anesthetizing box with 2% isoflurane to induce unconsciousness. Six microliters of viral vector were gently injected into the CSF through a 30-gauge needle with a Hamilton syringe in the lumbar area between vertebrae L4 and L5 by gently gripping the iliac crest of the mouse and inserting the needle with an angle of 45°. The correct procedure was confirmed by the mouse’s tail reflexiv e flick. […]
Assessment of thermal sensitivity
Plantar tests for thermal sensitivity were performed using the Hargreaves apparatus (Ugo Basile, Italy) in mice that were either naïve or received i.p. injection of capsaicin or test compound. A thermal stimulus, generated by an infrared-focused light source, invisible to the rodent, was applied through a glass pane, to the plantar surface of the hind paw of the animal. The response to this stimulus was considered the withdrawal of the stimulated paw (lifting and licking). Light intensity was set up at 30% and the cut-off at the 20 s. The final value of thermal withdrawal latency, expressed in seconds, was the average value of three consecutive trials. […]

FGF13 = target: T1, FGF13 (Homo sapiens, UniProt Q92913); assay: Surface plasmon resonance (SPR), compound binding to FGF13; details: for Kd: SPR
T1 construct: Full-length FGF13-1b (aa 1-192) was subcloned into appropriate plasmids; made in house; host or cells: E. coli BL21 (DE3) pLys
T1 sequence (Q92913 1-192 isoform Q92913-2): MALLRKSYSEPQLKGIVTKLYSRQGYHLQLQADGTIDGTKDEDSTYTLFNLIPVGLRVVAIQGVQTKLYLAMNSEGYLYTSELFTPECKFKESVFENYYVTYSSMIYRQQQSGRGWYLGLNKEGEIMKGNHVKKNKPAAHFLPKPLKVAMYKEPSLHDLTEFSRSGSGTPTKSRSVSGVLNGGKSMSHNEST
Experimental: page 6: Split-luciferase Complementation Assay (LCA) Twenty-four hours post transfection, cells were trypsinized using TrypLE (Gibco; cat # 12604013), centrifuged […] plates (Greiner Bio -One; cat # 655073 ) at ~0.8 x 10^5 cells per well in 200 μl of medium. The cells were incubated for another 24 hours, and then the growth medium was replaced with 100 μl serum -free, phenol red -free DMEM/F-12 medium (Invitrogen). All compounds from the PW - and the ZL-series, including PW164 and […] medium and then cells were incubated for two hours. The bioluminescence reaction was initiated by injection of 100 μl of D -luciferin substrate (1.5 mg/ml dissolved in PBS) using a Synergy H4 multimode microplate reader (BioTek). Luminescence readings were initiated after 3 s of mild plate shaking and performed at 2 min intervals […] °C. Raw signal intensity was computed by averaging peak luminescence plus two adjacent time points. Normalized signal intensity was expressed as the percentage of mean signal intensity relative to per plate control […] Surface plasmon resonance (SPR) All SPR experiments were performed on a Biacore T100 (GE Healthcare). […] ([…]) , which was previously described (14) or purified FGF13 were immobilized on CM5 sensor chip using 10 mM sodium acetate buffer (pH 5.5) with Amine Coupling Kit (GE […] to the control channel of the chip. For each compound, stock solution (50 mM) was serially diluted from 300 to 1 […] Samples were injected over the chip for 60 s followed by […] page 7: […] The nonspecific responses (buffer alone) were extracted for injected compound or peptide from experimental sensograms before data analysis. Data was analyzed for kinetic properties using Biacore T100 Analysis software. Visually inspected sensograms/traces were used to calculate the equilibrium constant (KD): i. the maximal responses were plotted against the treated concentrations, and the steady state KD was calculated from the fitted saturation binding curve; ii. a kinetic analysis for all ligand/analyte interaction was obtained by using Langmuir 1:1 interaction fitting model (KD = koff/kon). RNA isolation from DRG Mouse surgical and experimental procedures employed were approved by the University of Texas Medical Branch Institutional Animal Care and Use Committee. Animals were sacrificed using carbon dioxide before confirmation of death, rather than cervical dislocation. Mouse lumbar dorsal root ganglia (L4 and L5) were dissected and collected in Buffer RLT Plus (RNeasy Plus Mini Kit, QIAGEN, cat. nos. 74136). RNA was isolated according to the protocol reported in the same kit. Quantitative reverse transcriptase PCR (qRT-PCR) RNA samples for real-time analysis were then quantified using a Nanodrop Spectrophotometer (Thermo Scientific). cDNA was generated from total RNA (1 μg) in a 20 μl reaction using the reagents of iScriptTM Reverse Transcription Supermix for RT-qPCR (Bio-Rad Laboratories, cat. 1708840). FGF13 gene expression was determined by qRT-PCR. qRT-PCR was performed in duplicate for each sample using 4 μl of cDNA in a total volume of 20 μl using the iTaq Universal SYBR Green Supermix (Bio-Rad, Hercules, CA, United States). All RT-PCR assays were run using the BioRad CFX384 Touch Real-Time PCR System (Bio-Rad, Hercules, CA, United States) with the following conditions: 95°[…]) repeated by 40 cycles and 4°C. […] The internal reference gene for SYBR Green assays was 18[NT] and 5'-CTC

SMILES: COC(=O)[C@@H](NC(=O)[C@H](CCC(=O)OC(C)(C)C)NC(=O)[C@H](CC(C)C)NC(=O)[C@@H]1CCCN1C(=O)OCc1ccccc1)C(C)C [PW164] (Cbz-PLE(OtBu)V-OMe)
- thermal hindpaw withdrawal thresholds (latency), normal sensitivity (C57BL/6 mice; WT mice, i.pl., radiant heat test): Neither did PW164 affect thermal hindpaw withdrawal thresholds
- Kd (FGF13): 21 ± 3 µM

SMILES: CC(=O)N[C@@H](Cc1ccccc1)C(=O)N[C@@H](CC(C)C)C(=O)N1CCC[C@H]1C(=O)N[C@@H](CCCCN)C(=O)Nc1ccccc1 [ZL192] (Ac-FLPK-NHPh)
- thermal hypersensitivity in AAV2-shFGF13 mice (C57BL/6 mice; ZL192 0.18 mg/mL, i.pl.): absent
- thermal sensitivity in AAV2-shCTRL mice (C57BL/6 mice; ZL192 0.18 mg/mL, i.pl.): caused mechanical and thermal hypersensitivity
- thermal sensitivity (C57BL/6 mice; naive WT mice, ZL192 i.pl. 0.06 or 0.18 mg/mL): also seen
- Kd (FGF13): 4 µM
- Figure 1C Right panel, Mean response versus concentration (FGF13; concentration 3.12e-6): 10.5172
- Figure 1C Right panel, Mean response versus concentration (FGF13; concentration 6.25e-6): 11.7391
- Figure 1C Right panel, Mean response versus concentration (FGF13; concentration 1.25e-5): 12.5757
- Figure 1C Right panel, Mean response versus concentration (FGF13; concentration 2.5e-5): 14.2936
- Figure 1C Right panel, Mean response versus concentration (FGF13; concentration 5e-5): 15.3045
- Figure 1C Right panel, Mean response versus concentration (FGF13; concentration 7.5e-5): 16.2485
- Figure 1C Right panel, Mean response versus concentration (FGF13; concentration 0.0001): 18.1479
- Figure 1C Right panel, Mean response versus concentration (FGF13; concentration 0.00015): 20.366
- Figure 1C Right panel, Mean response versus concentration (FGF13; concentration 0.0002): 22.3345
- Figure 1C Right panel, Mean response versus concentration (FGF13; concentration 0.0003): 22.6291
- Figure 1C Right panel, Mean response versus concentration (FGF13; concentration 7.80E-07): 7.018

From PMC12259270, “Sensory neuron–expressed FGF13 controls nociceptive signaling in diabetic neuropathy models” (The Journal of Clinical Investigation, 2025)
